{
  "source": "patent US11674959B2",
  "about": "“Methods for identifying and preparing pharmaceutical agents for activating Tie1 and/or Tie2 receptors” (The Johns Hopkins University, priority 2017, dated 2023)",
  "key": {"[1]": {"system": "Tie2", "assay": "Western blot of MEC lysates, Ang1/2 signaling: Tie2 phosphorylation", "type": "cell-based, human", "experimental": "(§1) To investigate the effects of the integrin inhibitor AXT107 on Tie2 signaling, confluent monolayers of microvascular endothelial cells (MECs) on fibronectin-coated dishes were treated with various concentrations of AXT107 followed by exposure to the Tie2 ligands Ang1 or Ang2.\n(§2) Human dermal microvascular endothelial cells (Lonza) were maintained at 37° C. and 5% CO2 in EBM-2MV medium (Lonza) and used between passages two through seven. Where applicable, cells were serum starved in EBM-2 medium (Lonza) with no supplements. For FITC-Dextran permeability assays phenol red-free media were used to avoid auto-fluorescence. AXT107 were manufactured at New England Peptide by solid state synthesis, lyophilized, and dissolved in 100% DMSO.\nFor Ang1/2 signaling investigations, cell culture dishes (10 cm diameter) were coated with 5 μg/ml fibronectin (FN1; Sigma-Aldrich, St. Louis, Mo.) for two hours at 37° C. The FN1 solution was then removed by aspiration and 5×10^6 microvascular endothelial cells (MECs; Lonza, Walkersville, Md.) were plated in EGM-2MV media (Lonza) and cultured for forty-eight hours at 37° C. The cells were then serum starved for sixteen hours in serum-free EGM-2 base media (Lonza). AXT107 (0-100 μM, as indicated) was subsequently added to each culture and incubated for seventy-five minutes at 37° C. The cultures were then treated with 1 mM sodium vanadate (New England Biolabs, Ipswich, Mass.) for fifteen minutes to enhance the phospho-Tie2 signal followed by stimulation with 200 ng/ml angiopoietin (R&D Systems, Minneapolis, Minn.) for an additional fifteen minutes. The cells were then transferred to ice, washed twice with ice cold Dulbecco's phosphate-buffered saline (dPBS) containing Ca^2+ and Mg^2+, and collected by scraping in 500 μl of 1× Blue Loading Buffer (Cell Signaling, Danvers, Mass.). Lysate samples were then sonicated, boiled, and resolved by SDS-PAGE. Specific proteins were identified by Western blot, using the following primary antibodies: Cell Signaling—phospho-Tie2 (Y992) (Cat #: 4221), Tie2 (Cat #: 7403), phospho-Stat3 (Y705) (Cat #: 4113), Stat3 (Cat #: 4904), phospho-Akt (S473) (Cat #: 4058), Akt (Cat #: 9272), phospho-p44/42 MAPK (T202/Y204) (Cat #: 4370), p44/42 MAPK (Cat #: 4695); BD Transduction Laboratories—β1 integrin (Cat #: 610467); Millipore—α5 integrin (Cat #: AB1928) and detected with HRP-conjugated goat anti-rabbit and sheep anti-mouse secondary antibodies (GE healthcare)."}, "[2]": {"system": "Erk1/2", "assay": "Western blot of MEC lysates: Erk1/2 phosphorylation", "type": "cell-based, human", "details": "all tested conditions", "experimental": "as §1\nas §2, with “AXT107 were manufactured at New England Peptide by solid state synthesis, lyophilized, and dissolved in 100% DMSO.” left out\n(§3) For Ang1/2 signaling investigations, cell culture dishes (10 cm diameter) were coated with 5 μg/ml fibronectin (FN1; Sigma-Aldrich, St. Louis, Mo.) for two hours at 37° C. […] Specific proteins were identified by Western blot, using the following primary antibodies: Cell Signaling—phospho-Tie2 (Y992) (Cat #: 4221), Tie2 (Cat #: 7403), phospho-Stat3 (Y705) (Cat #: 4113), Stat3 (Cat #: 4904), phospho-Akt (S473) (Cat #: 4058), Akt (Cat #: 9272), phospho-p44/42 MAPK (T202/Y204) (Cat #: 4370), p44/42 MAPK (Cat #: 4695); BD Transduction Laboratories—β1 integrin (Cat #: 610467); Millipore—α5 integrin (Cat #: AB1928) and detected with HRP-conjugated goat anti-rabbit and sheep anti-mouse secondary antibodies (GE healthcare)."}, "[3]": {"system": "Akt", "assay": "Western blot of MEC lysates: Akt phosphorylation", "type": "cell-based, human", "details": "Ang2 and AXT107 treatment", "experimental": "as §1\nas §2, with “AXT107 were manufactured at New England Peptide by solid state synthesis, lyophilized, and dissolved in 100% DMSO.” left out\nas §3"}, "[4]": {"assay": "Self-assembly of peptide in media", "type": "physicochemical", "details": "added to media"}, "[5]": {"system": "MEC monolayers", "assay": "Immunofluorescence of MEC monolayers for VE-cadherin and F-actin", "type": "cell-based, human", "details": "200 ng/ml Ang2, increasing concentrations of AXT107", "experimental": "The jaggedness of these junctions is related to the structure of actin within the cell.\nGlass-bottomed, 96-well plates with half well size were coated with 10 μg/ml FN1 for two hours at 37° C. The FN1 solution was then removed by aspiration and the plate seeded with 4×10^3 MECs in EGM-2MV media. After twenty-four hours, the cells were washed once with dPBS containing Ca^2+ and Mg^2+ to remove dead cells and the cells were allowed to grow for an additional twenty-four hours. For three-hour duration treatments (i.e., VE-cadherin), cells were washed twice with dPBS containing Ca^2+ and Mg^2+ and serum starved in EBM-2 for ninety minutes. The media was then removed and the cells were treated for three hours with 100 μl of EBM-2 media containing 200 ng/ml Ang2 or PBS and varying concentrations of AXT107 or DMSO. For fifteen minute-treated samples (i.e., phospho-Tie2), the cells were serum starved in EBM-2 media for 165 minutes, incubated for ninety minutes with varying concentrations of AXT107 or DMSO in EBM-2, and finally stimulated for fifteen minutes with 200 ng/ml Ang2 or PBS supplemented with peptide to retain the same concentrations. These times were chosen so that both treatment procedures would be completed at the same time. The cells were then washed twice with cold dPBS containing Ca^2+ and Mg^2+ and fixed in 10% neutral buffered formalin for fifteen minutes. […]"}, "[6]": {"system": "Tie2", "assay": "Tie2 activation in vivo, retinopathy of prematurity (ROP) mouse model", "description": "To investigate the effects of AXT107 on Tie2 activation in vivo, retinopathy of prematurity (ROP) mouse model was used. In this system, P7 pups are placed in 75% O2 for five days, resulting in a loss of retinal capillary density from hyperoxia and a rapid induction of neovascularization upon the pup's return to normoxic conditions. […] Increased levels of Ang2 in the vitreous contribute to vessel leakage and macular edema in various retinopathies."}},
  "data": [
    {"sequence": "LRRFSTAPFAFIDINDVINF [AXT107]", "values": [
      {"measurement": "Tie2 phosphorylation", "setting": "[1]; AXT107 (0-100 μM) in combination with 200 ng/ml Ang2", "result": "significant, dose-dependent increase in Tie2 phosphorylation"},
      {"measurement": "Influence on Ang1 activity (Tie2 phosphorylation)", "setting": "[1]; MECs on fibronectin, AXT107 then Ang1, data not shown", "result": "did not significantly influence Ang1 activity"},
      {"measurement": "Phosphorylation by peptide alone", "setting": "[1]; absence of either ligand", "result": "phosphorylation was not induced by peptide alone"},
      {"measurement": "Total protein levels of Tie2 and the downstream targets", "setting": "[1]; data not shown", "result": "remained unchanged"},
      {"measurement": "Erk1/2 phosphorylation", "setting": "[2]", "result": "remained constant in all tested conditions"},
      {"measurement": "Akt phosphorylation", "setting": "[3]", "result": "also increased"},
      {"measurement": "Self-assembly in media", "setting": "[4]", "result": "self-assemble into peptide complexes when added to media"},
      {"measurement": "Actin fiber arrangement", "setting": "[5]", "result": "became more cortical with increasing concentrations of AXT107"},
      {"measurement": "Distribution of VE-cadherin at junctions", "setting": "[5]", "result": "became progressively smoother with increasing concentrations of AXT107"},
      {"measurement": "Activation of Tie2 by Ang2 in vivo", "setting": "[6]", "result": "potentiates the activation of Tie2 by Ang2 both in vitro and in vivo"}
    ]}
  ]
}
